Values after ≈ are worked out from the molar mass of the structure shown.

In assay [1] the test system is E. coli. Briefly: AST by counting individual bacteria in a flow cytometry type instrument (Aquila 400); MIC from differential growth relative to positive control. The assay is classed as cell-based. As for the experimental part: The sample was enriched for bacteria and at the same time the culture media was changed, in this case to Mueller-Hinton media (MH-media). E. coli bacteria were recovered via filtration through a 0.2 μm filter and the recovered bacteria were resuspended in MH-media to a concentration of approximately 10^8 CFU/ml in Müller Hinton broth before being diluted to approximately 10^6 CFU/ml in Müller Hinton Broth. Antibiotic solutions were prepared in a series of 2:1 serial dilutions in Müller Hinton broth at 10×test concentrations. The range of antibiotic concentrations was chosen based on identity of the bacteria and the antibiotic. […] A series of eight different concentrations was selected based on known clinical MIC values. Eight sample tubes containing 100 μl antibiotic solution at eight different concentrations and 800 μl Müller Hinton broth were prepared. One additional tube contains 900 μl Müller Hinton broth and no antibiotic as positive control. 100 μl bacterial suspension (10^6 CFU/ml) was added to all nine tubes. A negative control sample comprising 1000 μl Müller Hinton broth (i.e. no bacteria) is prepared as negative control. All tubes were incubated at 35° C. and samples were taken after 0, 4, 6 and 24 hours. Bacterial samples were prepared for counting as in Example 2. Bacterial AST profiles were determined using a flow cytometry based counting of individual bacteria in an Aquila 400 instrument (Q-linea AB, Sweden). Aquila 400 analysis was performed using the alexa 488 laser. […] MIC values for each antibiotic at different time points and cut-off values were calculated based on the differential bacterial growth.

Assay [2] has as its system E. coli. As to conditions: determined by another lab; cited from earlier work.
In assay [3] the test system is E. coli. The assay is described as follows: MIC with Macrobroth dilution. The class given is cell-based. The conditions noted are these: reference method; for MIC: Escherichia coli. A general note: Dilution methods test growth across graded concentrations, often in twofold steps.
The mark [4] stands for this setting: Escherichia coli, 4 h, cut-off 15%, 4 hours, Müller Hinton broth, 35° C., read-out: MIC.
[5] abbreviates: Escherichia coli, 4 h, cut-off 20%, 4 hours, Müller Hinton broth, 35° C., read-out: MIC.
The mark [6] stands for this setting: Escherichia coli, 6 h, cut-off 5%, 6 hours, Müller Hinton broth, 35° C., read-out: MIC.
Setting [7] is: Escherichia coli, 6 h, cut-off 10%, 6 hours, Müller Hinton broth, 35° C., read-out: MIC.
The mark [8] stands for this setting: Escherichia coli, 6 h, cut-off 15%, 6 hours, Müller Hinton broth, 35° C., read-out: MIC.
The mark [9] stands for this setting: Escherichia coli, 6 h, cut-off 20%, 6 hours, Müller Hinton broth, 35° C., read-out: MIC.
The mark [10] stands for this setting: Escherichia coli, 24 h, cut-off 15%, 24 hours, Müller Hinton broth, 35° C., read-out: MIC.
Setting [11] is: Escherichia coli, 24 h, cut-off 20%, 24 hours, Müller Hinton broth, 35° C., read-out: MIC.
The mark [12] stands for this setting: Escherichia coli, 4 h, cut-off 5%, 4 hours, Müller Hinton broth, 35° C., read-out: MIC.
Setting [13] is: Escherichia coli, 4 h, cut-off 10%, 4 hours, Müller Hinton broth, 35° C., read-out: MIC.
The mark [14] stands for this setting: Escherichia coli, 24 h, cut-off 5%, 24 hours, Müller Hinton broth, 35° C., read-out: MIC.
Setting [15] is: Escherichia coli, 24 h, cut-off 10%, 24 hours, Müller Hinton broth, 35° C., read-out: MIC.

With `CO/N=C(\C(=O)N[C@@H]1C(=O)N2C(C(=O)O)=C(COC(C)=O)CS[C@H]12)c1csc(N)n1` [Cefotaxime], the minimum inhibitory concentration (MIC) (commonly the smallest concentration in the dilution series that meets the test's criterion for growth inhibition) in the assay on E. coli [1] (setting [4]) amounted to 0.06 µg/mL (≈ 0.132 µM); in the assay on E. coli [1] (setting [5]), 0.06 µg/mL (≈ 0.132 µM); in the assay with E. coli [1] (setting [6]) it was 0.06 µg/mL (≈ 0.132 µM); with E. coli [1] (setting [7]) it was 0.06 µg/mL (≈ 0.132 µM); in the assay on E. coli [1] (setting [8]), 0.03 µg/mL (≈ 0.0659 µM); in the assay on E. coli [1] (setting [9]) it was 0.03 µg/mL (≈ 0.0659 µM). For the same compound, the MIC in the assay on E. coli [1] (setting [10]) and in the assay with E. coli [1] (setting [11]) was 0.06 µg/mL (≈ 0.132 µM) in each case. The “MIC with E-test” value with E. coli [2] was at most 0.5 µg/mL.

Consider `CC(C)(O/N=C(\C(=O)N[C@@H]1C(=O)N2C(C(=O)[O-])=C(C[n+]3ccccc3)CS[C@H]12)c1csc(N)n1)C(=O)O` [Ceftazidime], for which the MIC in the assay with E. coli [1] (setting [12]), with E. coli [1] (setting [13]), in the assay with E. coli [1] (setting [14]), with E. coli [1] (setting [15]), in the assay with E. coli [1] (setting [10]) and in the assay on E. coli [1] (setting [11]) was 0.25 µg/mL (≈ 0.457 µM) in each case. In the assay on E. coli [3], this compound displayed a minimal inhibitory concentration (MIC) of 0.25 µg/mL (≈ 0.457 µM). Also, in the assay on E. coli [2], the “MIC with E-test” value is at most 0.5 µg/mL.

`O=C(O)c1cn(C2CC2)c2cc(N3CCNCC3)c(F)cc2c1=O` [Ciprofloxacin]: the minimal inhibitory concentration (MIC) in the assay with E. coli [1] (setting [12]) amounted to 0.016 µg/mL (≈ 0.0483 µM); in the assay with E. coli [1] (setting [13]), 0.008 µg/mL (≈ 0.0241 µM); with E. coli [1] (setting [4]) it was 0.008 µg/mL (≈ 0.0241 µM); in the assay on E. coli [1] (setting [5]), 0.008 µg/mL (≈ 0.0241 µM); in the assay with E. coli [1] (setting [6]) it was 0.008 µg/mL (≈ 0.0241 µM); with E. coli [1] (setting [7]), 0.008 µg/mL (≈ 0.0241 µM). The MIC turned out to be 0.008 µg/mL (≈ 0.0241 µM) in the assay with E. coli [1] (setting [8]); 0.004 µg/mL (≈ 0.0121 µM) in the assay with E. coli [1] (setting [9]); 0.008 µg/mL (≈ 0.0241 µM) in the assay on E. coli [1] (setting [14]); 0.008 µg/mL (≈ 0.0241 µM) in the assay on E. coli [1] (setting [15]); 0.008 µg/mL (≈ 0.0241 µM) in the assay with E. coli [1] (setting [10]); 0.008 µg/mL (≈ 0.0241 µM) in the assay on E. coli [1] (setting [11]). Further, inhibition of growth in the assay on E. coli [3] (MIC) required 0.016 µg/mL (≈ 0.0483 µM). Besides, the “MIC with E-test” value in the assay on E. coli [2] is at most 0.03 µg/mL.

On to `C[C@@H](O)[C@H]1C(=O)N2C(C(=O)O)=C(S[C@@H]3CN[C@H](C(=O)N(C)C)C3)[C@H](C)[C@H]12` [Meropenem], for which the minimal inhibitory concentration (MIC) with E. coli [1] (setting [5]) was found to be 0.5 µg/mL (≈ 1.3 µM); with E. coli [1] (setting [8]), 0.5 µg/mL (≈ 1.3 µM); in the assay on E. coli [1] (setting [9]), 0.25 µg/mL (≈ 0.652 µM); against E. coli [1] (Escherichia coli, 24 h), 0.125 µg/mL (≈ 0.326 µM); in the assay with E. coli [1] (setting [14]) it was 0.5 µg/mL (≈ 1.3 µM); with E. coli [1] (setting [15]), 0.5 µg/mL (≈ 1.3 µM). In addition, the values for the MIC in the assay with E. coli [1] (setting [10]) and against E. coli [3] were 0.25 µg/mL (≈ 0.652 µM) and 0.25 to 0.5 µg/mL (≈ 0.652 to 1.3 µM), respectively. Further, the “MIC with E-test” value with E. coli [2] was at most 0.25 µg/mL.

For the compound Gentamicin, the minimal inhibitory concentration (MIC) against E. coli [1] (cut-off 5%, 4 hours, Müller Hinton broth, 35° C.) worked out at 1 µg/mL; against E. coli [1] (cut-off 5%, 6 hours, Müller Hinton broth, 35° C.), 0.5 µg/mL; in the assay with E. coli [1] (cut-off 5%, 24 hours, Müller Hinton broth, 35° C.), 1 µg/mL; against E. coli [1] (cut-off 10%, 4 hours, Müller Hinton broth, 35° C.) it was 0.5 µg/mL; against E. coli [1] (cut-off 10%, 6 hours, Müller Hinton broth, 35° C.), 0.5 µg/mL; against E. coli [1] (cut-off 10%, 24 hours, Müller Hinton broth, 35° C.), 1 µg/mL. Also, the minimal inhibitory concentration (MIC) with E. coli [1] (cut-off 15%, 4 hours, Müller Hinton broth, 35° C.) amounted to 0.5 µg/mL; against E. coli [1] (cut-off 15%, 6 hours, Müller Hinton broth, 35° C.), 0.5 µg/mL; in the assay on E. coli [1] (cut-off 15%, 24 hours, Müller Hinton broth, 35° C.), 1 µg/mL; in the assay with E. coli [1] (cut-off 20%, 4 hours, Müller Hinton broth, 35° C.), 0.5 µg/mL; against E. coli [1] (cut-off 20%, 6 hours, Müller Hinton broth, 35° C.), 0.5 µg/mL; against E. coli [1] (cut-off 20%, 24 hours, Müller Hinton broth, 35° C.), 1 µg/mL. Moreover, the “MIC with Macrobroth dilution” value in the assay on E. coli [3] was in the range of 0.5 to 1 µg/mL. The “MIC with E-test” value with E. coli [2] was 1 µg/mL.

These data come from patent publication US11505835B2, “Method for determining the identity and antimicrobial susceptibility of a microorganism” (Q-linea AB, priority 2014, dated 2022).
